Source: patent publication US20110053916A1 (Vertex Pharmaceuticals Incorporated, priority 2009, published 2011)

What was measured:
[1] = system: Mycobacterium tuberculosis H37Ra; assay: Mycobacterium tuberculosis growth inhibition assay (microtiter dilution, resazurin reduction); assay type: cell-based; details: 7H9 broth, 9 days + 24 h resazurin, lowest concentration inhibiting resazurin reduction by >70%, several symbols in a cell = repeat determinations
In short: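 M. tuberculosis H37Ra at ~1×10^6 cells/mL in 7H9 broth plus 10% ADC, exposed to 2-fold serial dilutions (7 or 11 steps) at 37 °C for 9 days. Resazurin then added, fluorescence (492/595 nm) read at baseline and after 24 h; MIC = lowest concentration inhibiting resazurin reduction >70% versus DMSO.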

[2] = target: T1, PknB (Mycobacterium tuberculosis, UniProt P9WI81); assay: biochemical; parameters: species or system M. tuberculosis; details: 3 nM PknB, 6 uM GarA, 3 μM ATP, 30 min; competitive tight-binding fit; several symbols in a cell = repeat determinations; read-out: Ki Values
T1 construct: made in house
T1 sequence (P9WI81 whole entry): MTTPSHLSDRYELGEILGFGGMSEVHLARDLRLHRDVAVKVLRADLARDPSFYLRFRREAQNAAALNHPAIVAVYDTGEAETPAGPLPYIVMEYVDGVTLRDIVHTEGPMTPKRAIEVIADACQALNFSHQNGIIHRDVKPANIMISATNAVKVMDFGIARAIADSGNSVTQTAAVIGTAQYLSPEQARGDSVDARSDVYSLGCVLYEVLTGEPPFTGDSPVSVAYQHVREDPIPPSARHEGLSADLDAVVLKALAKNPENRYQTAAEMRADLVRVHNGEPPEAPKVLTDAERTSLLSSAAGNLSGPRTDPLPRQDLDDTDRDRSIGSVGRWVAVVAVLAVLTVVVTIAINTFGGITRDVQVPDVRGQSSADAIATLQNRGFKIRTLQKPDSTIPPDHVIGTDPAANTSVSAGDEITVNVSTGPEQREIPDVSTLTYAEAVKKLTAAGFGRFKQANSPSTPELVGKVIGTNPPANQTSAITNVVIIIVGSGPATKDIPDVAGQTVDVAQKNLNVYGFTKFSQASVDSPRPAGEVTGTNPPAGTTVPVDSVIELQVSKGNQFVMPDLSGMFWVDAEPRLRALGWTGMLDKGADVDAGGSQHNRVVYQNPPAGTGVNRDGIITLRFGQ

Row | Compound | MIC values [1] | Ki [2] [nM]
1 | CC(=O)c1ccc(-c2nccc(Nc3cc(C4CC4)[nH]n3)n2)cc1 [Compound 308, 1-[4-[4-[(5-cyclopropyl-1H-pyrazol-3-yl)amino]pyrimidin-2-yl]phenyl]ethanone] | B+ | 10 to 50
2 | CC(O)c1ccc(-c2nccc(Nc3cc(C4CC4)[nH]n3)n2)cc1 (centres unmarked) [Compound 312, 1-[4-[4-[(5-cyclopropyl-1H-pyrazol-3-yl)amino]pyrimidin-2-yl]phenyl]ethanol] | B+ | 10 to 50
3 | CC(=O)OCCc1cnc(-c2ccc(S(N)(=O)=O)s2)nc1Nc1cc(C2CC2)[nH]n1 [Compound 313, 2-(4-(5-cyclopropyl-1H-pyrazol-3-ylamino)-2-(5-sulfamoylthiophen-2-yl)pyrimidin-5-yl)ethyl acetate] | A+ | 10 to 50
4 | CC(O)c1cccc(-c2nccc(Nc3cc(C4CC4)[nH]n3)n2)c1 (centres unmarked) [Compound 316, 1-[3-[4-[(5-cyclopropyl-1H-pyrazol-3-yl)amino]pyrimidin-2-yl]phenyl]ethanol] | B+ | 10 to 50
5 | CC(=O)c1cccc(-c2nccc(Nc3cc(C4CC4)[nH]n3)n2)c1 [Compound 317, 1-[3-[4-[(5-cyclopropyl-1H-pyrazol-3-yl)amino]pyrimidin-2-yl]phenyl]ethanone] | B+ | 10 to 50
6 | Cc1cc(-c2ccc(S(N)(=O)=O)s2)nc(Nc2cc(C3CC3)n[nH]2)n1 [Compound 322, 5-[2-[(5-cyclopropyl-2H-pyrazol-3-yl)amino]-6-methyl-pyrimidin-4-yl]thiophene-2-sulfonamide] | B++ | 1 to 10
7 | NS(=O)(=O)c1ccc(-c2nccc(Nc3cc(C4CC4)[nH]n3)n2)cc1 [Compound 323, 4-[4-[(5-cyclopropyl-1H-pyrazol-3-yl)amino]pyrimidin-2-yl]benzenesulfonamide] | B++ | 10 to 50
